Measurements: patent US11078197B2, “5-membered and bicyclic heterocyclic amides as inhibitors of rock” (BRISTOL-MYERS SQUIBB COMPANY, priority 2017, dated 2021)

Target: ROCK2 (Homo sapiens (Human), UniProt O75116)
Experiment: ROCK2 assay (peptide phosphorylation, LABCHIP 3000 Reader)
Type: biochemical
Conditions: 5 μM ATP, 1.5 μM peptide substrate, dose-response
Method: After incubation, the reaction was terminated by the addition of EDTA and the phosphorylated and non-phosphorylated peptides separated using a LABCHIP®3000 Reader (Caliper Life Sciences). […] Compounds were tested in dose-response format, and the inhibition of kinase activity was calculated at each concentration of compound. […] Representative Examples were tested in the ROCK2 assay described above and found having ROCK2 inhibitory activity.

Sequence of ROCK2 (O75116 whole entry, species assumed): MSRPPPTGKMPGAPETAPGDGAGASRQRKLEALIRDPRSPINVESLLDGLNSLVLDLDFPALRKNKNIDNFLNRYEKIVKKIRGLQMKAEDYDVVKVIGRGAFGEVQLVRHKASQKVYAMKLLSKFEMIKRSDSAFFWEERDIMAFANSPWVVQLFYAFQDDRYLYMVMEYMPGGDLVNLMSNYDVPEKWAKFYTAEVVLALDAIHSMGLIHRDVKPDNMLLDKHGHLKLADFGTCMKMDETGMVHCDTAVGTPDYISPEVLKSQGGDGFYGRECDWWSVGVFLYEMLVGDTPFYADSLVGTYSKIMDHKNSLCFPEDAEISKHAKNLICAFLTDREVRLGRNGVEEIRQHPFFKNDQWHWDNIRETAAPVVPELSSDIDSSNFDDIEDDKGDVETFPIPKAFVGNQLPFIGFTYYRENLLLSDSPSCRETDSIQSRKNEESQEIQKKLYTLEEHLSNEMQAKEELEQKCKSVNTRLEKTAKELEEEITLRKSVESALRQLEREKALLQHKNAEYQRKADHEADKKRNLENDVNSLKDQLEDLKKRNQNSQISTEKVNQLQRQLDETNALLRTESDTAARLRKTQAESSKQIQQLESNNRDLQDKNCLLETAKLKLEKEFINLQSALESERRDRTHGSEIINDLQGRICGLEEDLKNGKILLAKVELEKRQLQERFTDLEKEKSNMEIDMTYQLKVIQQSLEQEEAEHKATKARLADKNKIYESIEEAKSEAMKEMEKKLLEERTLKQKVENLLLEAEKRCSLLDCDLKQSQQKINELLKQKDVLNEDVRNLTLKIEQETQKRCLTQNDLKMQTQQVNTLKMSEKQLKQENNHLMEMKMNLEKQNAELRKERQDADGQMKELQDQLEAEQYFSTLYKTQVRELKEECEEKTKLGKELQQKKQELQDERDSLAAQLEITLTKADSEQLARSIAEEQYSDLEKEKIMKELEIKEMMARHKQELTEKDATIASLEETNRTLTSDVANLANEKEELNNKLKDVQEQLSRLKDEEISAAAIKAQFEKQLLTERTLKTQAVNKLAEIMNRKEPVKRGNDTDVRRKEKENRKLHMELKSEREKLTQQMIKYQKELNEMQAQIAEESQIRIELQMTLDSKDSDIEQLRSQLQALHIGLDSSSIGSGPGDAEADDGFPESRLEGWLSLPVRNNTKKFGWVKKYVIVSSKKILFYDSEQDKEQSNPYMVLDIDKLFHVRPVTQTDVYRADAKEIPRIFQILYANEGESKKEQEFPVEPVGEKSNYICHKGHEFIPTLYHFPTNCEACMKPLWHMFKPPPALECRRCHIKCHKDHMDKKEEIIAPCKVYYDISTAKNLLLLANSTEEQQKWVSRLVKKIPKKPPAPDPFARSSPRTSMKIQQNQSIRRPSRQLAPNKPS

| SMILES | IC50 |
| --- | --- |
| Cc1ccc2c(C(N)=O)c(O[C@H]3C[C@@]4(C[C@H](NC(=O)c5nn(C(F)F)c6cc(OCC(C)(C)O)ccc56)C4)C3)nn2c1 (stereo partly drawn) [Example 126, 1-(difluoromethyl)-6-(2-hydroxy-2-methylpropoxy)-N-[(4s)-6-({3-carbamoyl-6-methylpyrazolo[1,5-a]pyridin-2-yl}oxy)spiro[3.3]heptan-2-yl]-1H-indazole-3-carboxamide] | 46.4 nM |
| CC(C)(O)COc1ccc2c(C(=O)N[C@H]3C[C@]4(C3)C[C@H](Oc3nn5cc(F)ccc5c3C(N)=O)C4)nn(C(F)F)c2c1 (stereo partly drawn) [Example 128, 1-(difluoromethyl)-6-(2-hydroxy-2-methylpropoxy)-N-[(4s)-6-({3-carbamoyl-6-fluoropyrazolo[1,5-a]pyridin-2-yl}oxy)spiro[3.3]heptan-2-yl]-1H-indazole-3-carboxamide] | 83.2 nM |
| CC(C)(O)COc1ccc2c(C(=O)N[C@H]3C[C@]4(C3)C[C@H](Oc3nn5cc(C(F)(F)F)ccc5c3C(N)=O)C4)nn(C(F)F)c2c1 (stereo partly drawn) [Example 130, 1-(difluoromethyl)-6-(2-hydroxy-2-methylpropoxy)-N-[(4s)-6-{[3-carbamoyl-6-(trifluoromethyl)pyrazolo[1,5-a]pyridin-2-yl]oxy}spiro[3.3]heptan-2-yl]-1H-indazole-3-carboxamide] | 611 nM |
| Cc1ccn2nc(O[C@H]3C[C@@]4(C[C@H](NC(=O)c5nn(C(F)F)c6cc(OCC(C)(C)O)ccc56)C4)C3)c(C(N)=O)c2c1 (stereo partly drawn) [Example 132, 1-(difluroomethyl)-6-(2-hydroxy-2-methylpropoxy)-N-[(4s)-6-({3-carbamoyl-5-methylpyrazolo[1,5-a]pyridin-2-yl}oxy)spiro[3.3]heptan-2-yl]-1H-indazole-3-carboxamide] | 223 nM |
| Cc1cccc2c(C(N)=O)c(O[C@H]3C[C@@]4(C[C@H](NC(=O)c5nn(C(F)F)c6cc(OCC(C)(C)O)ccc56)C4)C3)nn12 (stereo partly drawn) [Example 133, 1-(difluoromethyl)-6-(2-hydroxy-2-methylpropoxy)-N-[(4s)-6-({3-carbamoyl-7-methylpyrazolo[1,5-a]pyridin-2-yl}oxy)spiro[3.3]heptan-2-yl]-1H-indazole-3-carboxamide] | 20.2 nM |
| CC(C)(O)COc1ccc2c(C(=O)N[C@H]3C[C@]4(C3)C[C@H](Oc3nn5c(-c6ccccc6)cccc5c3C(N)=O)C4)nn(C(F)F)c2c1 (stereo partly drawn) [Example 134, 1-(difluoromethyl)-6-(2-hydroxy-2-methylpropoxy)-N-[(4s)-6-({3-carbamoyl-7-phenylpyrazolo[1,5-a]pyridin-2-yl}oxy)spiro[3.3]heptan-2-yl]-1H-indazole-3-carboxamide] | 143 nM |
| CC(C)(O)COc1ccc2c(C(=O)N[C@H]3C[C@]4(C3)C[C@H](Oc3nn5cc(-c6ccc(F)nc6)ccc5c3C(N)=O)C4)nn(C(F)F)c2c1 (stereo partly drawn) [Example 135, 1-(difluoromethyl)-6-(2-hydroxy-2-methylpropoxy)-N-[(4s)-6-{[3-carbamoyl-6-(6-fluoropyridin-3-yl)pyrazolo[1,5-a]pyridin-2-yl]oxy}spiro[3.3]heptan-2-yl]-1H-indazole-3-carboxamide] | 390 nM |
| CC(C)(O)COc1ccc2c(C(=O)N[C@H]3C[C@]4(C3)C[C@H](Oc3nn5ccc(-c6ccc(F)nc6)cc5c3C(N)=O)C4)nn(C(F)F)c2c1 (stereo partly drawn) [Example 136, 1-(difluoromethyl)-6-(2-hydroxy-2-methylpropoxy)-N-[(4s)-6-{[3-carbamoyl-5-(6-fluoropyridin-3-yl)pyrazolo[1,5-a]pyridin-2-yl]oxy}spiro[3.3]heptan-2-yl]-1H-indazole-3-carboxamide] | 112 nM |
| CC(C)(O)COc1ccc2c(C(=O)N[C@H]3C[C@]4(C3)C[C@H](Oc3nn5ccc(-c6ccccc6)cc5c3C(N)=O)C4)nn(C(F)F)c2c1 (stereo partly drawn) [Example 137, 1-(difluoromethyl)-6-(2-hydroxy-2-methylpropoxy)-N-[(4s)-6-({3-carbamoyl-5-phenylpyrazolo[1,5-a]pyridin-2-yl}oxy)spiro[3.3]heptan-2-yl]-1H-indazole-3-carboxamide] | 150 nM |
| COc1cccc2c(C(N)=O)c(O[C@H]3C[C@@]4(C[C@H](NC(=O)c5nn(C(F)F)c6cc(OCC(C)(C)O)ccc56)C4)C3)nn12 (stereo partly drawn) [Example 138, 1-(difluoromethyl)-6-(2-hydroxy-2-methylpropoxy)-N-[(4s)-6-({3-carbamoyl-7-methoxypyrazolo[1,5-a]pyridin-2-yl}oxy)spiro[3.3]heptan-2-yl]-1H-indazole-3-carboxamide] | 22 nM |
| CC(C)CC1NC(=O)N([C@H]2CC3(C[C@H](Oc4nn5ccccc5c4C(N)=O)C3)C2)C1=O (stereo partly drawn) [Example 139, 2-(((2S,4s,6S)-6-(4-isobutyl-2,5-dioxoimidazolidin-1-yl)spiro[3.3]heptan-2-yl)oxy)pyrazolo[1,5-a]pyridine-3-carboxamide] | 208 nM |
| CC(CC1NC(=O)N([C@H]2C[C@@]3(C[C@H](Oc4nn5ccccc5c4C(N)=O)C3)C2)C1=O)C(F)(F)F (stereo partly drawn) [Example 140, 2-{[(4s)-6-[2,5-dioxo-4-(3,3,3-trifluoro-2-methylpropyl)imidazolidin-1-yl]spiro[3.3]heptan-2-yl]oxy}pyrazolo[1,5-a]pyridine-3-carboxamide] | 62.1 nM |
| CC(CC1NC(=O)N([C@H]2C[C@@]3(C[C@H](Oc4nn5ccccc5c4C(N)=O)C3)C2)C1=O)C(F)(F)F (stereo partly drawn) [Example 141, 2-{[(4s)-6-[2,5-dioxo-4-(3,3,3-trifluoro-2-methylpropyl)imidazolidin-1-yl]spiro[3.3]heptan-2-yl]oxy}pyrazolo[1,5-a]pyridine-3-carboxamide] | 203 nM |

The remaining lines, values ahead:

| IC50 | SMILES |
| --- | --- |
| 113 nM | NC(=O)c1c(O[C@H]2C[C@@]3(C[C@H](NC(=O)c4cnn5cc(OCC(F)F)ccc45)C3)C2)nn2cc(F)ccc12 (stereo partly drawn) [Example 127, 6-fluoro-2-{[(4s)-6-[6-(2,2-difluoroethoxy)pyrazolo[1,5-a]pyridine-3-amido]spiro[3.3]heptan-2-yl]oxy}pyrazolo[1,5-a]pyridine-3-carboxamide] |
| 702 nM | Cc1c(C(=O)N[C@H]2C[C@]3(C2)C[C@H](Oc2nn4cc(F)ccc4c2C(N)=O)C3)cnn1-c1ccc(C#N)cc1 (stereo partly drawn) [Example 129, 1-(4-cyanophenyl)-5-methyl-N-[(4s)-6-({3-carbamoyl-6-fluoropyrazolo[1,5-a]pyridin-2-yl}oxy)spiro[3.3]heptan-2-yl]-1H-pyrazole-4-carboxamide] |
| 1170 nM | NC(=O)c1c(O[C@H]2C[C@@]3(C[C@H](NC(=O)c4cnn5cc(OCC(F)F)ccc45)C3)C2)nn2cc(C(F)(F)F)ccc12 (stereo partly drawn) [Example 131, 2-{[(4s)-6-[6-(2,2-difluoroethoxy)pyrazolo[1,5-a]pyridine-3-amido]spiro[3.3]heptan-2-yl]oxy}-6-(trifluoromethyl)pyrazolo[1,5-a]pyridine-3-carboxamide] |
| 60.3 nM | CC(C)CNc1nnc(C(=O)N[C@H]2C[C@]3(C2)C[C@H](Oc2nc4c(cc2C(N)=O)COCC4)C3)s1 (stereo partly drawn) [Example 142, 5-[(2-methylpropyl)amino]-N-[(4s)-6-({3-carbamoyl-5H,7H,8H-pyrano[4,3-b]pyridin-2-yl}oxy)spiro[3.3]heptan-2-yl]-1,3,4-thiadiazole-2-carboxamide] |
| 109 nM | NC(=O)c1cc2c(nc1O[C@H]1C[C@@]3(C[C@H](NC(=O)c4cccc(OC(F)(F)F)c4)C3)C1)CCOC2 (stereo partly drawn) [Example 143, 2-{[(4s)-6-[3-(trifluoromethoxy)benzamido]spiro[3.3]heptan-2-yl]oxy}-5H,7H,8H-pyrano[4,3-b]pyridine-3-carboxamide] |
| 367 nM | Cc1nc(NCC(C)(C)O)sc1C(=O)N[C@H]1C[C@]2(C1)C[C@H](Oc1nc3c(cc1C(N)=O)COCC3)C2 (stereo partly drawn) [Example 144, 2-[(2-hydroxy-2-methylpropyl)amino]-4-methyl-N-[(4s)-6-({3-carbamoyl-5H,7H,8H-pyrano[4,3-b]pyridin-2-yl}oxy)spiro[3.3]heptan-2-yl]-1,3-thiazole-5-carboxamide] |
| 111 nM | Cc1nc(NCC(C)C)sc1C(=O)N[C@H]1C[C@]2(C1)C[C@H](Oc1nc3c(cc1C(N)=O)COCC3)C2 (stereo partly drawn) [Example 145, 4-methyl-2-[(2-methylpropyl)amino]-N-[(4s)-6-({3-carbamoyl-5H,7H,8H-pyrano[4,3-b]pyridin-2-yl}oxy)spiro[3.3]heptan-2-yl]-1,3-thiazole-5-carboxamide] |
| 2.9 nM | Cn1ncc2cc(C(N)=O)c(O[C@H]3C[C@@]4(C[C@H](NC(=O)c5cnn6c(C7CC7)c(OCC(C)(C)O)ccc56)C4)C3)nc21 (stereo partly drawn) [Example 147, 7-cyclopropyl-6-(2-hydroxy-2-methylpropoxy)-N-[(4s)-6-({5-carbamoyl-1-methyl-1H-pyrazolo[3,4-b]pyridin-6-yl}oxy)spiro[3.3]heptan-2-yl]pyrazolo[1,5-a]pyridine-3-carboxamide] |
| 52.7 nM | Cn1ncc2cc(C(N)=O)c(O[C@H]3C[C@@]4(C[C@H](NC(=O)c5cccc(CO)n5)C4)C3)nc21 (stereo partly drawn) [Example 148, 6-(hydroxymethyl)-N-[(4s)-6-({5-carbamoyl-1-methyl-1H-pyrazolo[3,4-b]pyridin-6-yl}oxy)spiro[3.3]heptan-2-yl]pyridine-2-carboxamide] |
| 14.5 nM | Cn1ncc2cc(C(N)=O)c(O[C@H]3C[C@@]4(C[C@H](NC(=O)c5nnc(-c6ccc(C(F)(F)F)cc6)s5)C4)C3)nc21 (stereo partly drawn) [Example 149, N-[(4s)-6-({5-carbamoyl-1-methyl-1H-pyrazolo[3,4-b]pyridin-6-yl}oxy)spiro[3.3]heptan-2-yl]-5-[4-(trifluoromethyl)phenyl]-1,3,4-thiadiazole-2-carboxamide] |
| 7.1 nM | Cc1c(C(=O)N[C@H]2C[C@]3(C2)C[C@H](Oc2nc4c(cnn4C)cc2C(N)=O)C3)cnn1-c1ccc(S(C)(=O)=O)cc1 (stereo partly drawn) [Example 150, 1-(4-methanesulfonylphenyl)-5-methyl-N-[(4s)-6-({5-carbamoyl-1-methyl-1H-pyrazolo[3,4-b]pyridin-6-yl}oxy)spiro[3.3]heptan-2-yl]-1H-pyrazole-4-carboxamide] |
